Measured values: ChEMBL document CHEMBL1201862, “PubChem BioAssay data set” (2004)
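Interpolation was linear, between the two tested concentrations surrounding the appropriate level; five concentrations were tested over 48 hours in 96-well plates. GI50: concentration for 50% inhibition of growth.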 Activity calls are given as the source filed them. Cut-off read from the data, not from the text of the source: active = GI50 up to about 1.1 µM and inactive = higher.

Key:
Assay in all cases: NCI-60 cell line screen, 48 h
A498 = system: A498
SF-268 = system: SF-268
MOLT-4 = system: MOLT-4
DU-145 = system: DU-145
UACC-62 = system: UACC-62
SK-MEL-2 = system: SK-MEL-2
MDA-N = system: MDA-N
COLO 205 = system: COLO 205
RXF 393 = system: RXF 393
T47D = system: T47D
SN12C = system: SN12C
HCT-15 = system: HCT-15
HT-29 = system: HT-29
CAKI-1 = system: CAKI-1
U-251 = system: U-251
M14 = system: M14
MDA-MB-231 = system: MDA-MB-231
HL-60 = system: HL-60
SK-MEL-5 = system: SK-MEL-5
NCI-H522 = system: NCI-H522

Measured: GI50

O=c1[nH]nc(-c2ccccc2)n1/N=C/c1cccs1
inactive: A498 54.2 µM | SF-268 > 100 µM | MOLT-4 31.6 µM | DU-145 32.3 µM | UACC-62 46.7 µM | SK-MEL-2 99.5 µM | MDA-N 74.8 µM | COLO 205 19.5 µM | RXF 393 37.3 µM | T47D 38.1 µM | SN12C 46.8 µM | HT-29 65.5 µM | CAKI-1 > 100 µM | U-251 > 100 µM | M14 > 100 µM | MDA-MB-231 > 100 µM
44.3 µM: HCT-15

CC(=O)OCC1OC(n2c(-c3ccccc3)c(/N=N/c3ccc(C)cc3)c(C)c(C#N)c2=S)C(OC(C)=O)C(OC(C)=O)C1OC(C)=O (stereo unspecified)
inactive: A498 2.78 µM | SF-268 9.04 µM | MOLT-4 3.67 µM | DU-145 18.1 µM | SK-MEL-2 20.7 µM | MDA-N 7.36 µM | COLO 205 23.1 µM | RXF 393 16.2 µM | T47D 59.8 µM | SN12C 6.35 µM | HL-60 2.82 µM | HT-29 12.8 µM | CAKI-1 22.9 µM | U-251 14.9 µM | M14 3.16 µM | MDA-MB-231 17.7 µM
21.1 µM: HCT-15

O=C(Cc1ccccc1)NN1C(=O)/C(=C\c2ccccc2O)S/C1=N\c1ccccc1
> 100 µM: HCT-15
inactive: SK-MEL-5 > 100 µM | A498 > 100 µM | SF-268 > 100 µM | MOLT-4 > 100 µM | DU-145 > 100 µM | UACC-62 > 100 µM | SK-MEL-2 > 100 µM | MDA-N > 100 µM | COLO 205 > 100 µM | RXF 393 > 100 µM | T47D > 100 µM | SN12C > 100 µM | HT-29 > 100 µM | U-251 > 100 µM | M14 > 100 µM | MDA-MB-231 > 100 µM

CC(NNC(=O)c1ccncc1)c1ccccc1 (stereo unspecified)
> 100 µM: HCT-15
inactive: SK-MEL-5 > 100 µM | A498 > 100 µM | SF-268 > 100 µM | MOLT-4 > 100 µM | DU-145 > 100 µM | UACC-62 > 100 µM | SK-MEL-2 > 100 µM | MDA-N > 100 µM | COLO 205 > 100 µM | RXF 393 > 100 µM | T47D > 100 µM | SN12C > 100 µM | HL-60 > 100 µM | HT-29 > 100 µM | CAKI-1 > 100 µM | U-251 > 100 µM | M14 > 100 µM | MDA-MB-231 > 100 µM

SC1=C2CCCCCC2=NC2(CCCCCC2)S1
inactive: SK-MEL-5 11.2 µM | SF-268 41.7 µM | MOLT-4 19 µM | DU-145 30.8 µM | UACC-62 26.8 µM | SK-MEL-2 6.3 µM | MDA-N 33.4 µM | COLO 205 17.7 µM | RXF 393 32.6 µM | T47D 17.4 µM | SN12C 37.3 µM | HL-60 12.1 µM | HT-29 24.9 µM | CAKI-1 31.5 µM | U-251 32 µM | M14 35.2 µM | MDA-MB-231 36.6 µM
37.1 µM: HCT-15

Nc1ccn(C2CC(O)C(COP(=O)(S)OC3CC(n4ccc(N)nc4=O)OC3CO)O2)c(=O)n1 (stereo unspecified)
> 100 µM: HCT-15
inactive: SK-MEL-5 > 100 µM | SF-268 > 100 µM | MOLT-4 > 100 µM | DU-145 > 100 µM | UACC-62 > 100 µM | SK-MEL-2 > 100 µM | MDA-N 4.93 µM | COLO 205 13.8 µM | T47D > 100 µM | NCI-H522 > 100 µM | SN12C 52.4 µM | HL-60 > 100 µM | HT-29 > 100 µM | CAKI-1 > 100 µM | U-251 > 100 µM | M14 > 100 µM | MDA-MB-231 > 100 µM
